Where two headings read alike, the source gives them in different places.
Tested on: rat spinal dorsal root ganglion (DRG) neurons
Assay: High potassium-induced rise in intracellular calcium concentration of rat DRG neurons (Cal-520 AM fluorescence imaging)
Format: cell-based
Details: compound 30 μmol/L; for inhibition at 30 µM: Rattus norvegicus, DRG neuron, vehicle group = 0%, read-out: Inhibition rate (%) of a rise in intracellular calcium concentration; for Inhibition of high potassium-induced rise in intracellular calcium concentration, in words: KCl 30 mmol/L, compared to vehicle treatment group, Table 5 experiment
Text: Example 4 Effect of the cyclic amine derivative (I) or a pharmacologically acceptable salt thereof on high potassium-induced rise in intracellular calcium concentration of rat spinal dorsal root ganglion (DRG) neurons:
The cyclic amine derivative (I) or a pharmacologically acceptable salt thereof was examined for its inhibitory effect on high potassium-induced rise in intracellular calcium concentration of DRG neurons.
The SD rats (4 to 6 weeks old, male; Charles River Laboratories Japan, Inc.) were anesthetized and euthanized by bloodletting from abdominal aorta. After incision of the dorsal part, the spinal column was excised and cooled in ice. The dorsal column was cut off, and the spinal cord was removed from the ventral side of the spinal column. Then, DRGs (L4 to L6) with nerve fibers were excised with tweezers. The excised DRGs were dipped in ice-cold Leibovitz's L-15 medium (Thermo Fisher Scientific), and the nerve fibers were removed under a stereoscopic microscope to separate DRG.
The separated DRGs were made fine slits with ophthalmic scissors, followed by incubation at 37° C. for 20 minutes with Collagenase A (Roche Molecular Systems). After centrifugation at 200×g for 5 minutes, the supernatant was removed, and 0.05% Trypsin-EDTA (Thermo Fisher Scientific) was added, followed by incubation at 37° C. for 5 minutes. DMEM (Thermo Fisher Scientific) containing 1% penicillin-streptomycin (Thermo Fisher Scientific) and 10% fetal bovine serum (Thermo Fisher Scientific) was added thereto. After centrifugation at 200×g for 5 minutes, the supernatant was removed. After the removal of the supernatant, Neurobasal-A Medium (Thermo Fisher Scientific) containing 1% penicillin-streptomycin and 2% B-27 (Thermo Fisher Scientific), which was prepared as a DRG nerve culture medium, was added. Then, the cells were dissociated by micropipetting. The dissociated cells were passed through a 70 μm cell strainer (Greiner) and centrifuged at 200×g for 5 minutes. After the centrifugation, the supernatant was removed, and the cells were suspended by the culture medium. This cell suspension was inoculated to a polylysine-coated 35 mm dish (Matsunami Glass Ind., Ltd.) coated in advance with laminin (Sigma-Aldrich), cultured overnight at 37° C. under 5% CO2, and then used in the measurement of change in intracellular calcium concentration.
Cal-520, AM(registered trademark) (AAT Bioquest) was used as a calcium fluorescent dye. The medium was removed from the cells cultured in the dish, and the cells were washed twice with a perfusate. Then, a Cal-520, AM solution adjusted to 4 μmol/L was added thereto, and the cells were cultured at 37° C. for 1 to 1.5 hours under 5% CO2. The perfusate was an aqueous solution containing NaCl (140 mmol/L), KCl (5 mmol/L), CaCl2)·2H2O (1.2 mmol/L), MgCl2.6H2O (2 mmol/L), D(+)-glucose (14 mmol/L) and HEPES (10 mmol/L), adjusted to pH 7.4. Then, the dish was washed by perfusion at 2 mL/min for 10 minutes.
Change in intracellular calcium concentration was measured by analyzing with analytical software, change in fluorescence intensity of the cells loaded with the calcium fluorescent dye in images taken under a confocal laser microscope system (Nikon Instech Co., Ltd.). The laser wavelength was 488 nm, and the images were acquired at intervals of 57 to 60 sheets per minute.
For the induction of neuronal excitation, a treatment with a high potassium solution (hereinafter, “high potassium treatment”) was performed to induce a rise in intracellular calcium concentration by the depolarization of cell membranes. The high potassium treatment and a treatment with the cyclic amine derivative (I) or a pharmacologically acceptable salt thereof (compounds 1 to 10, compound of Comparative Example 1 and compound of Comparative Example 2) (hereinafter, “compound treatment”) of the cells were performed by the perfusion and replacement of a solution. The perfusion rate was controlled to 2 mL/min using a tube pump. […]

[1] = high potassium treatment (KCl 30 mmol/L), average of 60 to 250 cells per group
[2] = high potassium treatment (KCl 32.5 mmol/L or 30 mmol/L), average of 106 to 262 cells per group

SMILES | inhibition at 30 µM [1] | Inhibition of high potassium-induced rise in intracellular calcium concentration, in words | inhibition at 30 µM [2]
CN(C)[C@@H]1CCCN(C(=O)CC(O)c2nccn2C)C1 (stereo partly shown) [Compound 5] | 39% |  | 
CN(C)C1CCN(C(=O)CC(O)c2nccn2CCC(F)(F)F)CC1 (stereo not shown) [Compound of Comparative Example 2, 1-(4-(dimethylamino)piperidin-1-yl)-3-(1-(3,3,3-trifluoropropyl)-1H-imidazol-2-yl)-3-hydroxypropan-1-one, reference compound] | -1.1% | not inhibited | 
CCCn1ccnc1C(O)CC(=O)N1CCC(N(C)C)CC1 (stereo not shown) [Compound 7, 1-(4-(dimethylamino)piperidin-1-yl)-3-(1-propyl-1H-imidazol-2-yl)-3-hydroxypropan-1-one] | 15.4% |  | 
CN(C)C1CCN(C(=O)CC(O)c2ncc(Cl)n2C)CC1 (stereo not shown) [Compound 9, 3-(5-chloro-1-methyl-1H-imidazol-2-yl)-1-(4-(dimethylamino)piperidin-1-yl)-3-hydroxypropan-1-one] | 7.1% |  | 
CN1CCN(C2CCN(C(=O)CC(O)c3nccn3C)CC2)CC1 (stereo not shown) [Compound 6, 3-hydroxy-3-(1-methyl-1H-imidazol-2-yl)-1-(4-(4-methylpipzerazin-1-yl)piperidin-1-yl)propan-1-one] | 23.3% |  | 
CN(C)C1CCN(C(=O)CC(O)c2nccn2CC(F)(F)F)CC1 (stereo not shown) [Compound 3, 1-(4-(dimethylamino)piperidin-1-yl)-3-hydroxy-3-(1-(2,2,2-trifluoroethyl)-1H-imidazol-2-yl)propan-1-one] |  |  | 17.8%
CCn1ccnc1C(O)CC(=O)N1CCC(N(C)C)CC1 (stereo not shown) [Compound 1, 1-(4-(dimethylamino)piperidin-1-yl)-3-(1-ethyl-1H-imidazol-2-yl)-3-hydroxypropan-1-one] |  |  | 35.5%
COCCn1ccnc1C(O)CC(=O)N1CCC(N(C)C)CC1 (stereo not shown) [Compound of Comparative Example 1, 1-(4-(dimethylamino)piperidin-1-yl)-3-(1-(2-methoxyethyl)-1H-imidazol-2-yl)-3-hydroxypropan-1-one, reference compound] | -3.3% | not inhibited | 
CN(C)C1CCN(C(=O)CCc2nccn2C)CC1 [Compound 4, 1-(4-(dimethylamino)piperidin-1-yl)-3-(1-methyl-1H-imidazol-2-yl)propan-1-onesulfatemonohydrate] |  |  | 11.9%
CC(C)n1ccnc1C(O)CC(=O)N1CCC(N(C)C)CC1 (stereo not shown) [Compound 10, 1-(4-(dimethylamino)piperidin-1-yl)-3-(1-isopropyl-1H-imidazol-2-yl)-3-hydroxypropan-1-one] | 5.9% |  | 
CN(C)C1CCN(C(=O)C[C@H](O)c2nccn2C)CC1 [Compound 2, (S)-1-(4-(dimethylamino)piperidin-1-yl)-3-hydroxy-3-(1-methyl-1H-imidazol-2-yl)propan-1-one] |  |  | 19.3%

Source: US11510914B2, “Agent for inhibiting rise in intraneuronal calcium concentration” (Toray Industries, Inc., priority 2018, dated 2022)
